# In patent US7312237B2, “Combination of epothilone analogs and chemotherapeutic agents for the treatment of prolilferative diseases” (Bristol-Myers Squibb Co., priority 2001, dated 2007):
# Test system: HCT-116
# Test: In vitro cytotoxicity (MTS assay), HCT-116
# Type: cell-based
# Settings: Homo sapiens; HCT-116, 72 hour incubation
# Protocol: HCT116 human carcinoma cell lines and HCT116/VM46 cells, a MDR variant, were maintained in McCoy's 5A medium (GIBCO) and 10% heat inactivated fetal bovine serum (GIBCO). A2780 human ovarian carcinoma cells and A2780Tax cells obtained from Dr. Antonio Fojo (NCI, Bethesda, Md.) were maintained in IMEM (GIBCO) and 10% fetal bovine serum (GIBCO).
# The in vitro cytotoxicity was assessed in tumor cells by a tetrazolium-based colorimetric assay which takes advantage of the metabolic conversion of MTS (3-(4,5-dimethylthiazol-2-yl)-5-(3-carboxymethoxyphenyl)-2-(4-sulphenyl)-2H-tetrazolium, inner salt) to a reduced form that absorbs light at 492 nm. Cells were seeded 24 hr prior to drug addition. Following a 72 hour incubation at 37° C. with serially diluted compound, MTS, in combination with the electron coupling agent phenazine methosulfate, was added to the cells. The incubation was continued for 3 hours, then the absorbancy of the medium at 492 nm was measured with a spectrophotometer to obtain the number of surviving cells relative to control populations. The results are expressed as median cytotoxic concentrations (IC50 values).
structure (smiles),measurement,value
"C/C(=C\c1csc(C)n1)[C@@H]1C[C@@H]2O[C@]2(C)CCC[C@H](C)[C@H](O)[C@@H](C)C(=O)C(C)(C)[C@@H](O)CC(=O)N1 (relative stereo) [Compound 1, [1S-[1R*,3R*(E),7R*,10S*,11R*,12R*,16S*]]-7,11-dihydroxy-8,8,10,12,16-pentamethyl-3-[1-methyl-2-(2-methyl-4-thiazolyl)ethenyl]-4-aza-17-oxabicyclo[14.1.0] heptadecane-5,9-dione]",IC50,2.6 nM
